Measurements reported in publication PMC4028107, “Adenosine deaminase activity modulation by some street drug: molecular docking simulation and experimental investigation” (DARU Journal of Pharmaceutical Sciences, 2014).

How the values were obtained:
adenosine deaminase [1] = target: T1, adenosine deaminase (Bos taurus, UniProt P56658); assay: Fluorescence spectroscopy of ADA (Trp emission); assay type: binding, bovine; details: excitation 290 nm, emission 300-400 nm, pH 7.4, enzyme 6 μM, compounds 1.7 to 73.4 μM
T1 construct: Adenosine deaminase (EC 3.5.4.4) extracted from bovine spleen; purchased sigma; host or cells: bovine spleen (tissue extract)
T1 sequence (P56658 1-363): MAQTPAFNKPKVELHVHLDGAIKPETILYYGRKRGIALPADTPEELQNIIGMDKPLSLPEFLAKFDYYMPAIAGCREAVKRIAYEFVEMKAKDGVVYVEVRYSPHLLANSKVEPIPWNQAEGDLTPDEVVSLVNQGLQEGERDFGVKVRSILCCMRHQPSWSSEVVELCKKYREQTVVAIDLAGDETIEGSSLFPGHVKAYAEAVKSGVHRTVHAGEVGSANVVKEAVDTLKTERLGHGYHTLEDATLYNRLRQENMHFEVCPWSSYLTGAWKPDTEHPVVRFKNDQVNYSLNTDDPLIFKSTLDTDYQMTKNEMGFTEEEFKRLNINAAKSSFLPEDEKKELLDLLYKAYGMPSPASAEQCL
Procedure: Fluorescence spectroscopy was performed on a Hitachi fluorescence spectrophotometer model MPF-4 with 1 cm path length fluorescence cuvette and final volume of 400 μL. The excitation wavelength was adjusted in 290 nm, and the emission was scanned every 1 nm in the range of 300 to 400 nm.

adenosine deaminase [2] = target: T1, adenosine deaminase; assay: Circular dichroism spectroscopy of ADA; design: species or system bovine; details: far-UV 200–260 nm, pH 7.4; cocaine concentration around 180 μM
Procedure: CD spectra were measured in the far-UV (200–260 nm) region with JASCO J-715 spectropolarimeter (Japan). JASCO J-715 software not only gave us the possibility of data smoothing, but also used to predict the secondary structure changes of the protein according to the statistical method. Each scan was recorded in 1 nm increments at 37°C, repeated three times, and averaged. The protein was in 0.1 M PBS buffer, pH = 7.4, and its concentration was adjusted to 2 mg/ml in 1 cm path length cuvette. The results were expressed in molar ellipticity [θ] (deg cm^2.dmol^−1).

[3] = target: T2, Adenosine deaminase (EC 3.5.4.4) extracted from bovine spleen (Bos taurus, UniProt P56658); assay: biochemical; assay type: biochemical; details: for IC50: 2 mg/ml adenosine deaminase enzyme, 37°C, 30 min incubation, PBS pH 7.4, compounds 5–300 μM
T2 construct: Adenosine deaminase (EC 3.5.4.4) extracted from bovine spleen; purchased sigma; host or cells: bovine spleen (tissue extract)
T2 sequence (P56658 1-363): T1 sequence (P56658 1-363)
Procedure: Adenosine deaminase (EC 3.5.4.4) extracted from bovine spleen was purchased from sigma, and all other used materials were of analytical grade and acquired from Merck. PBS that is used in assay was adjusted at 7.4, at which, enzyme has optimal activity in [38, 39]. All solutions were prepared in MilliQ (Millipore, USA) water.
Released ammonia resulted by enzyme activity was determined by specific Berthelot colorimetric method which was used for micro determination of ADA activity in serum. […] In this process sodium nitroprusside is used as the catalyst. The reaction was initiated by addition of adenosine as a substrate at 37°C to preincubated enzyme with different concentrations of tested compounds at different concentrations (5–300 μM). Finally, the enzymatic reaction was stopped at the end of 30 minutes of incubation by adding phenol nitroprusside solution. The mixture kept again for 30 minutes at 37°C before absorbance determination.
Obtained absorbance was normalized through blank sample, and IC50 values were calculated by Prism software (Ver. 5, GraphPad Software Inc., San Diego CA,).

Row | SMILES | change in fluorescence spectra of ADA (adenosine deaminase [1]) | change in CD spectra of ADA (adenosine deaminase [2]) | IC50 [3] [µM] | concentration up to which ADA was activated [3] [µM]
1 | COC(=O)[C@H]1[C@@H](OC(=O)c2ccccc2)C[C@@H]2CC[C@H]1N2C [Cocaine] | bathochromic shift | drastic changes | 180 | –
2 | CCOc1ccc2c3c1O[C@H]1[C@@H](O)C=C[C@H]4[C@@H](C2)N(C)CC[C@@]341 [Ethylmorphine] | do not show noticeable change and shift | – | 35 | –
3 | COC1=CC=C2[C@H]3Cc4ccc(OC)c5c4[C@@]2(CCN3C)[C@H]1O5 [Thebaine] | do not show noticeable change and shift | – | 163 | 50
